# Results from the kinase profiling compilation of Christmann-Franck et al. (2016).
# Key:
# Assay in all cases: radiometric filter-binding kinase assay
# [1] = target: MAPKAPK2 (human) (UniProt P49137)
# [2] = target: BTK (human) (UniProt Q06187)
# [3] = target: RPS6KA5 KD1 KD2 (human) (UniProt O75582)
# [4] = target: MAP3K5 (human) (UniProt Q99683)
# [5] = tested on: RPS6KB1 (human), P23443 [T412E]
# [6] = target: TBK1 (human) (UniProt Q9UHD2)
# [7] = target: MAP3K9 (human) (UniProt P80192)
# [8] = target: MYLK (human) (UniProt Q15746)
# [9] = target: MKNK2 (human) (UniProt Q9HBH9)
# [10] = target: PIM1 (human) (UniProt P11309)
# [11] = target: EPHA4 (human) (UniProt P54764)
# [12] = target: TTK (human) (UniProt P33981)
# [13] = target: EEF2K (human) (UniProt O00418)
# EEF2K (human), sequence (O00418 whole entry, looked up): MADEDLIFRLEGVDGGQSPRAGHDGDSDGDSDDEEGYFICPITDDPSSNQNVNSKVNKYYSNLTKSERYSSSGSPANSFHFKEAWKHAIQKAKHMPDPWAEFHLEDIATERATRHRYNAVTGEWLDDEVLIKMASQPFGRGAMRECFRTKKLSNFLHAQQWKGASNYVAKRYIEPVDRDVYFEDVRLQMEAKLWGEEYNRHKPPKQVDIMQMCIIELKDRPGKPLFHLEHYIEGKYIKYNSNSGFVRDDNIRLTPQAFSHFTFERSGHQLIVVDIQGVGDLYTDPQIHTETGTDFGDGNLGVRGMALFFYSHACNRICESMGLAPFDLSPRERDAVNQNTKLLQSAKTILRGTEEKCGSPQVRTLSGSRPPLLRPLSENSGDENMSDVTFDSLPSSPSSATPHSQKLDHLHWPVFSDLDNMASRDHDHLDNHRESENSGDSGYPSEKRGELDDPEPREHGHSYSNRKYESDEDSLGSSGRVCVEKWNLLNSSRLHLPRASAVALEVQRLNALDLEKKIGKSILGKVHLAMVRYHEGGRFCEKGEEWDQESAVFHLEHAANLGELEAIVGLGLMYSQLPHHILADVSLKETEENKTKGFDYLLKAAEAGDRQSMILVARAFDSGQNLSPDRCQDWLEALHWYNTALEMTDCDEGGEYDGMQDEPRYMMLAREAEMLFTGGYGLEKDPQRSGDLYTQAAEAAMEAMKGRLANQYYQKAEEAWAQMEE
# [14] = target: PKN2 (human) (UniProt Q16513)
# [15] = target: MARK3 (human) (UniProt P27448)
# [16] = target: PIM2 (human) (UniProt Q9P1W9)
# PIM2 (human), sequence (Q9P1W9 whole entry, looked up): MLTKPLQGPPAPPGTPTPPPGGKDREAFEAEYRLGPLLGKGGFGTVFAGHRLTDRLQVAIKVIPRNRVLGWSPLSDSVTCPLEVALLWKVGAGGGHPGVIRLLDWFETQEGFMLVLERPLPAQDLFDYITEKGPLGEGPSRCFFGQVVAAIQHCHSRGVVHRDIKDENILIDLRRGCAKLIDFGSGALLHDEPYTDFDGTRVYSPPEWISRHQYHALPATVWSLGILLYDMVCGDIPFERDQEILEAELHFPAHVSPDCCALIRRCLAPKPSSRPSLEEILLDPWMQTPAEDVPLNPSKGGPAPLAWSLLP
# [17] = target: MAP2K1 (human) (UniProt Q02750)
# MAP2K1 (human), sequence (Q02750 whole entry, looked up): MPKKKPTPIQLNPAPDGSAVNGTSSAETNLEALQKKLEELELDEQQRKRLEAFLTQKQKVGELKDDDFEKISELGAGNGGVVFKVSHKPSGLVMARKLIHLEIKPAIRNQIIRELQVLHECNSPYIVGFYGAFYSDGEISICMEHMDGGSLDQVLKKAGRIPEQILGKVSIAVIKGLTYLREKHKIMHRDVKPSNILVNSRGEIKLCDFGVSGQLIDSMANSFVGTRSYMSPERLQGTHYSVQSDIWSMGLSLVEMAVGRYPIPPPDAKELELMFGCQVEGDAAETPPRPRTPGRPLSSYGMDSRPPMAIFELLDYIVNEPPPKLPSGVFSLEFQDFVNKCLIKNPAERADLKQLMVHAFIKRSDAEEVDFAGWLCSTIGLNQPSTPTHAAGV
# [18] = target: NEK6 (human) (UniProt Q9HC98)
# [19] = target: PIM3 (human) (UniProt Q86V86)
# [20] = tested on: PAK2 (human), Q13177 [T402E]
# [21] = target: STK3 (human) (UniProt Q13188)
# [22] = target: GCK (human) (UniProt Q12851)
# [23] = target: EPHB1 (human) (UniProt P54762)
# EPHB1 (human), sequence (P54762 whole entry, looked up): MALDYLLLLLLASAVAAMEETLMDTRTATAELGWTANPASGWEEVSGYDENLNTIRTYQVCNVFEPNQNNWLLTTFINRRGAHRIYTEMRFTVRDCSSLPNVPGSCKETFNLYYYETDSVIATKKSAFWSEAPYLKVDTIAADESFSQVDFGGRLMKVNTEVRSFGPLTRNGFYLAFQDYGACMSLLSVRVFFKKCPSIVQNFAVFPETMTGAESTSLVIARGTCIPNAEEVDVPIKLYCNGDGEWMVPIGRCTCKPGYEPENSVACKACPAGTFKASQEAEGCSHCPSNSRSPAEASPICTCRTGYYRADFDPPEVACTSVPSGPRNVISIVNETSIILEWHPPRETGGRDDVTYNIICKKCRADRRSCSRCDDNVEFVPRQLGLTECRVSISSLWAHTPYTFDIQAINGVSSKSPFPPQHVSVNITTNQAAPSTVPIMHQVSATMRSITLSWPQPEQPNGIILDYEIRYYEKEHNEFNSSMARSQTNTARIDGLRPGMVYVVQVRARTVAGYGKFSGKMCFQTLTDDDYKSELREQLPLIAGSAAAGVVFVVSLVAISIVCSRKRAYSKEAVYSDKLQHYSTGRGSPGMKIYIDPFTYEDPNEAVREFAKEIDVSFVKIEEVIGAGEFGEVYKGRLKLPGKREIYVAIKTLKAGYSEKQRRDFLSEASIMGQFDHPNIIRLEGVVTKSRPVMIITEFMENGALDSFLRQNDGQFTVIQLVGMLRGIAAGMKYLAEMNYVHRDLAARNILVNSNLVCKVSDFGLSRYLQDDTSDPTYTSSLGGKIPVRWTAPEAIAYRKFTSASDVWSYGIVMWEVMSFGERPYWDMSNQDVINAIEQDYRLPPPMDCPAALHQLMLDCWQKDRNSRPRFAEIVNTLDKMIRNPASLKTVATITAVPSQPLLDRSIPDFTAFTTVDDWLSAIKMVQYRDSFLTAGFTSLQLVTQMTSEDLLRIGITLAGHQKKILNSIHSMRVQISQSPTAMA
# [24] = target: IKBKB (human) (UniProt O14920)
# [25] = target: EPHB4 (human) (UniProt P54760)
# EPHB4 (human), sequence (P54760 whole entry, looked up): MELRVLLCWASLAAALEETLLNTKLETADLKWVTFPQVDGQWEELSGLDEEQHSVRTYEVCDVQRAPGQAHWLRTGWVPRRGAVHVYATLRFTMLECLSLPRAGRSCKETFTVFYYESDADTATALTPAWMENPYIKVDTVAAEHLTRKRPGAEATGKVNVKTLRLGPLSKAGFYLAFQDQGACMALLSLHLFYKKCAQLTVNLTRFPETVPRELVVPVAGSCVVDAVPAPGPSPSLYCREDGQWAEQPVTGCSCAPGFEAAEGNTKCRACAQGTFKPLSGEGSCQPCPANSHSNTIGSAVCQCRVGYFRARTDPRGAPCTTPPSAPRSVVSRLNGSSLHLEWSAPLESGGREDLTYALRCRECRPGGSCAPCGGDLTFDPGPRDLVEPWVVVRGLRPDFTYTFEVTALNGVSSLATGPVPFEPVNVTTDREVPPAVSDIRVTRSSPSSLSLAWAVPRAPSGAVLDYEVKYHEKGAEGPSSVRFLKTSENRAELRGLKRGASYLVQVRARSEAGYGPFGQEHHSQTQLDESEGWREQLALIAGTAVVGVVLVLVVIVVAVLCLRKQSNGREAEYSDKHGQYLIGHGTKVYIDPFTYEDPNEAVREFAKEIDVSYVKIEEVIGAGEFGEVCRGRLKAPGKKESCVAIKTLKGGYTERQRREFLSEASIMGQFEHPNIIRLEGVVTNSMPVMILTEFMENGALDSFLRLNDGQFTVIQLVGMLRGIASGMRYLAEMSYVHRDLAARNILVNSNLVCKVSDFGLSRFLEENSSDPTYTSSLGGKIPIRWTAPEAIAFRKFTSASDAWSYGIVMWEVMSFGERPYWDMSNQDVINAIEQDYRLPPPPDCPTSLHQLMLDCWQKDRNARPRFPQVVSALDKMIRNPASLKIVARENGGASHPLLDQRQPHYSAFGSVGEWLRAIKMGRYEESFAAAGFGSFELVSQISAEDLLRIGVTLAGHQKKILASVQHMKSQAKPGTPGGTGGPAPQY
# [26] = target: MARK4 (human) (UniProt Q96L34)
# MARK4 (human), sequence (Q96L34 whole entry, looked up): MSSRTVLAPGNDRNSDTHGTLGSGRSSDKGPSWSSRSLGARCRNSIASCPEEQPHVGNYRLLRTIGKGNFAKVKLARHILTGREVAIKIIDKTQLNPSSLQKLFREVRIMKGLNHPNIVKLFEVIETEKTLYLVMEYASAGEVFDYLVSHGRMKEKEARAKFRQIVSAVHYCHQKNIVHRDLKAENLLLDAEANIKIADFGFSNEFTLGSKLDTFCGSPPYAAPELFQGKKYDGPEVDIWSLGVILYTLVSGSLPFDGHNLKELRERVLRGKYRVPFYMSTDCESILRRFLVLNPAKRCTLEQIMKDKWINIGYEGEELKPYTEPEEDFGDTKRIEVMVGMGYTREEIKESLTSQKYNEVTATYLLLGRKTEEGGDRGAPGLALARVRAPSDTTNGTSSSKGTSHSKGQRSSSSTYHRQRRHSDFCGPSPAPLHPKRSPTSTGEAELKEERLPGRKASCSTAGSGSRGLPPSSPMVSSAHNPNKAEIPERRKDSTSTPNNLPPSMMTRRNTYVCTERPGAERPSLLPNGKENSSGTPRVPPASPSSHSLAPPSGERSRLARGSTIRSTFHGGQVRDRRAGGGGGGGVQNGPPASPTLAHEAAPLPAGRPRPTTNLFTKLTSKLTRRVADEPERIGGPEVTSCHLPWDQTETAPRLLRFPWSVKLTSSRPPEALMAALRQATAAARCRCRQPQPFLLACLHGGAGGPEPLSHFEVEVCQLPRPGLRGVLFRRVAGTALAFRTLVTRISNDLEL
# [27] = target: PAK6 (human) (UniProt Q9NQU5)
# [28] = target: INSRR (human) (UniProt P14616)
# [29] = target: CSNK2A1 (human) (UniProt P68400)
# CSNK2A1 (human), sequence (P68400 whole entry, looked up): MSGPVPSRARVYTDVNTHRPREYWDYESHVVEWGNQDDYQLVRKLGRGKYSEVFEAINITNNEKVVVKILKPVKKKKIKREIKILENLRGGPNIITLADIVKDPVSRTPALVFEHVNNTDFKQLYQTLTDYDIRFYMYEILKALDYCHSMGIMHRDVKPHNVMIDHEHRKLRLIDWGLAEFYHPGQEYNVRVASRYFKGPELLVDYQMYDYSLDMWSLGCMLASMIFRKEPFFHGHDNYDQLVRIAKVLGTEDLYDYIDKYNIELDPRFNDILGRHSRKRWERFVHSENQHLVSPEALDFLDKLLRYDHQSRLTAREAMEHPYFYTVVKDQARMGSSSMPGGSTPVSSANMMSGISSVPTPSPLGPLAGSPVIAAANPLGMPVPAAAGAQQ
# [30] = target: CDK2 CCNA2 (human) (UniProt P20248+P24941)
# [31] = target: CHEK1 (human) (UniProt O14757)
# [32] = target: DAPK1 (human) (UniProt P53355)
# [33] = target: SRPK1 (human) (UniProt Q96SB4)
# [34] = target: MAPK9 (human) (UniProt P45984)
# MAPK9 (human), sequence (P45984 whole entry, looked up): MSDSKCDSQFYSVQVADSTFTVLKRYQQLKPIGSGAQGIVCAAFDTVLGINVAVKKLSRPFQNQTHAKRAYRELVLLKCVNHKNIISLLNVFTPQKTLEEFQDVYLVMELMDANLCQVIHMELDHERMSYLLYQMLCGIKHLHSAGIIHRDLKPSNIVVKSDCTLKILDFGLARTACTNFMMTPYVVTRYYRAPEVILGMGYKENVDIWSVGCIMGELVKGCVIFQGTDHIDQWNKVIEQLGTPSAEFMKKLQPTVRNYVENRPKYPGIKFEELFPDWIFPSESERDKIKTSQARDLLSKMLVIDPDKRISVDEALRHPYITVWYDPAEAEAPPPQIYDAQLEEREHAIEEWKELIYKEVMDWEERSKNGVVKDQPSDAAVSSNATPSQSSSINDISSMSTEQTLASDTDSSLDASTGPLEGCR
# [35] = target: MAP2K2 (human) (UniProt P36507)
# [36] = target: YES1 (human) (UniProt P07947)
compound,measurement,setting,value
Cc1ccc(-c2ccc3c(ccc4sc5c(c43)NC[C@@H](C)NC5=O)n2)cn1,residual activity,[1]; compound 0.1 µM,24%
same,residual activity,[1]; compound 1.0 µM,9%
same,residual activity,[1]; compound 10.0 µM,2%
same,residual activity,[2]; compound 0.1 µM,120%
same,residual activity,[2]; compound 1.0 µM,118%
same,residual activity,[2]; compound 10.0 µM,107%
same,residual activity,[3]; compound 0.1 µM,120%
same,residual activity,[3]; compound 1.0 µM,105%
same,residual activity,[3]; compound 10.0 µM,99%
same,residual activity,[4]; compound 0.1 µM,106%
same,residual activity,[4]; compound 1.0 µM,80%
same,residual activity,[4]; compound 10.0 µM,10%
same,residual activity,[5]; compound 0.1 µM,99%
same,residual activity,[5]; compound 1.0 µM,95%
same,residual activity,[5]; compound 10.0 µM,80%
same,residual activity,[6]; compound 0.1 µM,110%
same,residual activity,[6]; compound 1.0 µM,87%
same,residual activity,[6]; compound 10.0 µM,96%
same,residual activity,[7]; compound 0.1 µM,99%
same,residual activity,[7]; compound 1.0 µM,95%
same,residual activity,[8]; compound 0.1 µM,118%
same,residual activity,[8]; compound 1.0 µM,112%
same,residual activity,[8]; compound 10.0 µM,110%
same,residual activity,[9]; compound 0.1 µM,111%
same,residual activity,[9]; compound 10.0 µM,26%
same,residual activity,[10]; compound 0.1 µM,93%
same,residual activity,[10]; compound 1.0 µM,58%
same,residual activity,[10]; compound 10.0 µM,17%
same,residual activity,[11]; compound 0.1 µM,99%
same,residual activity,[11]; compound 1.0 µM,103%
same,residual activity,[11]; compound 10.0 µM,78%
same,residual activity,[12]; compound 0.1 µM,117%
same,residual activity,[12]; compound 1.0 µM,101%
same,residual activity,[12]; compound 10.0 µM,84%
same,residual activity,[13]; compound 0.1 µM,106%
same,residual activity,[13]; compound 1.0 µM,97%
same,residual activity,[13]; compound 10.0 µM,85%
same,residual activity,[14]; compound 0.1 µM,108%
same,residual activity,[14]; compound 1.0 µM,101%
same,residual activity,[14]; compound 10.0 µM,81%
same,residual activity,[15]; compound 0.1 µM,113%
same,residual activity,[15]; compound 1.0 µM,115%
same,residual activity,[16]; compound 0.1 µM,103%
same,residual activity,[16]; compound 1.0 µM,103%
same,residual activity,[16]; compound 10.0 µM,66%
same,residual activity,[17]; compound 0.1 µM,101%
same,residual activity,[17]; compound 1.0 µM,97%
same,residual activity,[17]; compound 10.0 µM,69%
same,residual activity,[18]; compound 0.1 µM,109%
same,residual activity,[18]; compound 1.0 µM,96%
same,residual activity,[18]; compound 10.0 µM,66%
same,residual activity,[19]; compound 0.1 µM,55%
same,residual activity,[19]; compound 1.0 µM,18%
same,residual activity,[19]; compound 10.0 µM,3%
same,residual activity,[20]; compound 0.1 µM,102%
same,residual activity,[20]; compound 1.0 µM,103%
same,residual activity,[20]; compound 10.0 µM,93%
same,residual activity,[21]; compound 0.1 µM,131%
same,residual activity,[21]; compound 10.0 µM,100%
same,residual activity,[22]; compound 0.1 µM,109%
same,residual activity,[22]; compound 1.0 µM,89%
same,residual activity,[22]; compound 10.0 µM,19%
same,residual activity,[23]; compound 0.1 µM,113%
same,residual activity,[23]; compound 1.0 µM,106%
same,residual activity,[23]; compound 10.0 µM,106%
same,residual activity,[24]; compound 0.1 µM,115%
same,residual activity,[24]; compound 1.0 µM,109%
same,residual activity,[24]; compound 10.0 µM,101%
same,residual activity,[25]; compound 0.1 µM,110%
same,residual activity,[25]; compound 1.0 µM,106%
same,residual activity,[25]; compound 10.0 µM,99%
same,residual activity,[26]; compound 0.1 µM,107%
same,residual activity,[26]; compound 1.0 µM,87%
same,residual activity,[26]; compound 10.0 µM,49%
same,residual activity,[27]; compound 0.1 µM,117%
same,residual activity,[27]; compound 1.0 µM,106%
same,residual activity,[27]; compound 10.0 µM,116%
same,residual activity,[28]; compound 0.1 µM,99%
same,residual activity,[28]; compound 1.0 µM,79%
same,residual activity,[28]; compound 10.0 µM,53%
same,residual activity,[29]; compound 0.1 µM,100%
same,residual activity,[29]; compound 1.0 µM,97%
same,residual activity,[29]; compound 10.0 µM,93%
same,residual activity,[30]; compound 0.1 µM,111%
same,residual activity,[30]; compound 1.0 µM,93%
same,residual activity,[30]; compound 10.0 µM,57%
same,residual activity,[31]; compound 1.0 µM,109%
same,residual activity,[31]; compound 10.0 µM,112%
same,residual activity,[32]; compound 0.1 µM,103%
same,residual activity,[32]; compound 1.0 µM,62%
same,residual activity,[32]; compound 10.0 µM,15%
same,residual activity,[33]; compound 0.1 µM,89%
same,residual activity,[33]; compound 1.0 µM,63%
same,residual activity,[33]; compound 10.0 µM,19%
same,residual activity,[34]; compound 0.1 µM,123%
same,residual activity,[34]; compound 1.0 µM,111%
same,residual activity,[34]; compound 10.0 µM,107%
same,residual activity,[35]; compound 0.1 µM,113%
same,residual activity,[35]; compound 1.0 µM,108%
same,residual activity,[35]; compound 10.0 µM,79%
same,residual activity,[36]; compound 0.1 µM,112%
same,residual activity,[36]; compound 1.0 µM,89%
same,residual activity,[36]; compound 10.0 µM,55%
